Results as given in patent US20240316043A1, “BROMODOMAIN INHIBITORS FOR CANCER THERAPY” (University of Tennessee Research Foundation, priority 2023, published 2024).
“Also recorded” adds a separate entry of the source.

Assays:
[1] = tested on: intracranial GBM xenografts (MT330 cells); assay: Orthotopic GBM model, MT330 cells injected into brains of NSG mice; assay type: in vivo
Procedure: MT330 cells (10^6) were injected into the brains of NSG female mice. After tumors were identified by BLI (˜10 days post-injection), mice were IP injected with TMZ (60 mg/Kg body weight) or IV-129 (10 mg/Kg) alone or in combination 3 times per week (5 mice per group) for 2 weeks. […] FIG. 5C Kaplan-Meier analysis of the survival data (5 mice/group) of the brain tumor-bearing mice was performed.
MT330 cells […] were injected into the brains of NSG female mice. After tumors were identified by BLI (˜10 days post-injection), mice were IP injected with TMZ (10 mg/Kg body weight), IV-255 or IV-275 (20 mg/Kg) alone or in combination 3 times per week (5 mice/group).
Luciferase-expressing MT330 cells were injected into the brains of immunocompromised NSG mice. Once tumors were identified by bioluminescence imaging (BLI) at ˜10 days after tumor cell injection, mice were subjected to intraperitoneal injection of TMZ or YH-IV-129 alone, or in combination. At 20 days after initiation of treatment, live animal imaging was performed on an IVIS Lumina instrument. […] The mean survival of control mice was 27 days after cell injection (FIG. 5C).
Luciferase-expressing MT330 cells were injected into the brains of immunocompromised NSG mice. Once tumors were identified by bioluminescence imaging (BLI) at ˜10 days after tumor cell injection, mice were subjected to intraperitoneal injection of TMZ or YH-IV-255 or YH-IV-275 alone, or in combination. […] This is compelling preliminary evidence that these two new compounds have potent anticancer activity in intracranial GBM xenografts when combined with standard-of-care TMZ chemotherapy and that these drugs cross the blood-brain barrier.

[2] = tested on: T98G GBM cells; assay: IncuCyte live cell imaging proliferation assay; assay type: cell-based; settings: TMZ (500 μM) plus bromodomain inhibitors (20 μM), FIG. 2
Procedure: T98G GBM cells were treated with TMZ (500 μM), the bromodomain inhibitors (20 μM), and cell proliferation was determined by Incucyte live cell assays using cellular confluence method. The data was normalized to the calculated cell confluence at day 0. Control cells were treated with vehicle (DMSO).
To further characterize the biological activity of selected bromodomain inhibitors, YH-IV-129, YH-IV-181 and YH-IV-191, IncuCyte live cell imaging proliferation assays were performed with the highly TMZ-resistant T98G GBM cell line.

[3] = target: T1, BRM bromodomain (Homo sapiens, UniProt P51531); assay: Cellular thermal shift assay (CETSA), BRM bromodomain construct in MT330 cells; assay type: binding; design: binding to the BRM BRD: dose or concentration left out as unconfirmed; settings: for thermostability of the BRM BRD: heating 44.5° C. to 55.6° C. for 5 min, immunoblot
T1 construct: expressed in transfected cells; host or cells: MT330 glioblastoma cells
Procedure: (§1) For the CETSA, MT330 cells expressing the BRM (FIG. 6B), or BRG1 (FIG. 6C) the BRD construct were treated with bromodomain inhibitors […] and immunoblotted as indicated.
(§2) After heating over a temperature range from 44.5° C. to 55.6° C. for 5 min, MT330 cells were lysed and then immunoblotted for BRG1 or BRM.

[4] = target: T2, BRG1 bromodomain (Homo sapiens, UniProt P51532); assay: Cellular thermal shift assay (CETSA), BRG1 bromodomain construct in MT330 cells; assay type: binding; design: binding to the BRG1 BRD: dose or concentration left out as unconfirmed; settings: for thermostability of the BRG1 BRD: 30 μM, heating 44.5° C. to 55.6° C. for 5 min, immunoblot
T2 construct: expressed in transfected cells; host or cells: MT330 glioblastoma cells
Procedure: After heating over a temperature range from 44.5° C. to 55.6° C. for 5 min, the cells were lysed, placed on ice at 4° C. and then immunoblotted for BRG1 or actin.
as §1, §2

[5] = tested on: MT330 GBM cells; assay: Cell death ELISA in MT330 GBM cells; assay type: cell-based; settings: for enhancement of TMZ-induced cell death: 10 mM inhibitor in combination with 200 mM of TMZ, 72 hrs, FIG. 1
Procedure: Control cells were treated with vehicle (DMSO). Cell death was determined at 72 hr after treatment by a cell death ELISA that quantifies histone-complexed DNA fragments. […]
Parental and BRG1 knockout MT330 cells were treated with bleomycin (0.01 μM) and bromodomain inhibitors […]. After 72 hr, cell death was determined by cell death ELISA.
The biological activity of bromodomain inhibitors was assessed for the ability to enhance TMZ-induced cell death. In brief, MT330 cells were treated with […] of bromodomain inhibitors alone, or in combination with […] of TMZ for 72 hrs, and GBM cell death was determined by a commercial ELISA.

[6] = tested on: LN229 GBM cells; assay: γH2Ax immunostaining after TMZ; assay type: cell-based; design: dose or concentration left out as unconfirmed; settings: 24 hrs, FIG. 11
Procedure: After treatment for 24 hrs, cells were fixed and immunostained for gH2Ax. Analysis of immunostaining was performed on a laser confocal microscope.
As TMZ is DNA damaging agent, we tested the ability of various bromodomain inhibitors to enhance TMZ-induced DNA damage as evidence by immunostaining of GBM cells with γH2Ax and examination of the staining on a confocal microscope. γH2AX is the phosphorylated version of the histone variant H2Ax and is a highly specific and sensitive marker for monitoring DNA damage initiation and resolution. […] Similar results were obtained with MT330 GBM cells.

[7] = tested on: BRM knockout MT330 cells; assay: Cell death ELISA in BRM knockout MT330 cells; assay type: cell-based; settings: TMZ (500 μM) and bromodomain inhibitors (10 μM), 72 hr, FIG. 7
Procedure: BRG1 and BRM knockout MT330 cells were treated with TMZ (500 μM) and bromodomain inhibitors (10 μM). After 72 hr, cell death was determined by a cell death ELISA.
To further characterize the specificity of YH-IV-255 for the BRG1 bromodomain, GBM cell lines were generated with either BRG1 or BRM knocked out by CRISPR/Cas9 gene editing.^14 These cells were isolated by puromycin selection and the knockout of the either subunit was validated by immunoblotting.

[8] = tested on: MT330 GBM cells; assay: Cell death ELISA in MT330 GBM cells; assay type: cell-based
[9] = tested on: MT330 cells; assay: γH2Ax immunostaining after bleomycin; assay type: cell-based; settings: bleomycin alone (0.5 and 2 μM), 1 hr, FIG. 8
Procedure: After 1 hr of bleomycin treatment cell death, cells were fixed and immunostained for γH2Ax. Analysis of immunostaining was performed on at least 1,000 cells on the Lionheart FX imaging system.
Bleomycin is a chemotherapeutic drug that is used to treat various cancers. […] Thus, the ability of bleomycin to induce DNA damage as evidence by immunostaining of MT330 cells and LN229 with γH2Ax was tested. Quantification of cell staining was determined on the Lionheart FX imaging station.

[10] = vehicle control band disappearing at 49.8° C., FIG. 3

T2 sequence (P51532 1453-1564 limits assumed): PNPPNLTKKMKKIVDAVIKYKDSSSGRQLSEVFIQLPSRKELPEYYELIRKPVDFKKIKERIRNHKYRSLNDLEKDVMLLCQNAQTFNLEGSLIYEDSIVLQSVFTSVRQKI
T1 sequence (P51531 1378-1506 limits assumed): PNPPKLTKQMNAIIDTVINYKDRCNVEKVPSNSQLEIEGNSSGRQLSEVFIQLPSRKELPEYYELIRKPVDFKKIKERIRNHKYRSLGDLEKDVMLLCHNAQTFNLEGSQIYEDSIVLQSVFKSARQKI

## Cn1nnc2c(C(N)=O)ncn2c1=O [TMZ, temozolomide, reference compound]
[1]; TMZ (60 mg/Kg) or IV-129 (10 mg/Kg) alone IP, control mice 27 days, FIG. 5C
  mean survival, either agent alone: 35 days

## COc1ccc(N2C[C@H]3C[C@@H]2CN3C(=O)Nc2ccccc2)cc1 [YH-IV-181, (1R,4R)-5-(4-methoxyphenyl)-N-phenyl-2,5-diazabicyclo[2.2.1]heptane-2-carboxamide]
[2]
  sensitization to the antiproliferative action of TMZ: potently sensitized T98G GBM cells to the antiproliferative action of TMZ
[3]; FIG. 3
  thermostability of the BRM BRD: significantly increased the thermostability
[3]; [10]
  temperature at which the BRM BRD protein band is undetectable: 54.20 °C
[4]; FIG. 3
  thermostability of the BRG1 BRD: significantly increased the thermostability
[4]; [10]
  temperature at which the BRG1 BRD protein band is undetectable: 54.20 °C

## COc1ccc(N2C[C@H]3C[C@@H]2CN3C(=O)NC(C)(C)C)cc1 [YH-IV-185, (1R,4R)-N-(tert-butyl)-5-(4-methoxyphenyl)-2,5-diazabicyclo[2.2.1]heptane-2-carboxamide]
[3]; FIG. 3
  thermostability of the BRM BRD: only moderately increased the thermostability
[4]; FIG. 3
  thermostability of the BRG1 BRD: only moderately increased the thermostability

## COc1ccc(N2CCN(C(=O)OC(C)(C)C)CC2)cc1 [YH-IV-189, tert-butyl 4-(4-methoxyphenyl)piperazine-1-carboxylate]
[3]; FIG. 3
  thermostability of the BRM BRD: only moderately increased the thermostability
[4]; FIG. 3
  thermostability of the BRG1 BRD: only moderately increased the thermostability

## COc1ccc(N2C[C@H]3C[C@@H]2CN3C(=O)Nc2ccc(F)cc2)cc1 [YH-IV-211, (1R,4R)-N-(4-fluorophenyl)-5-(4-methoxyphenyl)-2,5-diazabicyclo[2.2.1]heptane-2-carboxamide]
[5]
  enhancement of TMZ-induced cell death: better efficacy than PFI-3

## COc1ccc(N2C[C@H]3C[C@@H]2CN3C(=O)Oc2ccccc2)cc1 [YH-IV-235, (1R,4R)-phenyl 5-(4-methoxyphenyl)-2,5-diazabicyclo[2.2.1]heptane-2-carboxylate]
[5]
  enhancement of TMZ-induced cell death: better efficacy than PFI-3

## COc1ccc(N2C[C@H]3C[C@@H]2CN3C(=O)Oc2ccc(F)c(F)c2)cc1 [YH-IV-275, (1R,4R)-3,4-difluorophenyl 5-(4-methoxyphenyl)-2,5-diazabicyclo [2.2.1]heptane-2-carboxylate]
[1]; combination with TMZ (10 mg/Kg), IV-255 or IV-275 (20 mg/Kg) IP 3 times per week, 3-4 weeks after treatment, versus either agent alone, FIG. 10
  bioluminescent signal in the brain: decreased the bioluminescent signal in the brain
[6]
  γH2Ax staining, inhibitor with TMZ: marked increase in γH2Ax staining
[7]
  enhancement of TMZ-induced cell death: very similar activity in enhancing the cell death inducing activity in BRM knockout GBM cells
[3]; CETSA, FIG. 6B
  binding to the BRM BRD: binds well to the BRM BRD
[8]; TMZ (500 μM) and bromodomain inhibitors (10 μM), 24 hr, FIG. 6A
  TMZ sensitivity (TMZ-induced cell death): similarly increase the TMZ sensitivity of GBM cells
[5]
  enhancement of TMZ-induced cell death: better efficacy than PFI-3; also recorded: somewhat more bioactive than YH-IV-129; also recorded: markedly enhanced TMZ sensitivity of GBM cells in vitro as compared to PFI-3
[5]; bleomycin (0.01 μM) and bromodomain inhibitors (10 μM), 72 hr, FIG. 9
  enhancement of bleomycin-induced cell death: sensitized GBM cells to bleomycin-induced cell death
[5]; bromodomain inhibitors (10 μM) alone, 72 hr, FIG. 9
  cell death, inhibitor alone: none of the bromodomain inhibitors (YH-IV-129, YH-IV-255 and YH-IV-275) alone had any death inducing activity
[4]; CETSA, FIG. 6C
  binding to the BRG1 BRD: bind equivalently to the BRG1 BRD
[4]; conclusion from CETSA and knockout cells
  selectivity BRG1 versus BRM bromodomain: inhibitor of both BRG1 and BRM domains

## bleomycin [reference compound]
[8]; low dose of bleomycin (0.01 µM), 72 hr, FIG. 9
  cell death, bleomycin alone: induced low levels of cell death in MT330 cells
[9]
  γH2Ax staining, bleomycin alone: dose dependent increase of γH2Ax staining
